Key:
Assay in all cases: CTG-3D luminescence at 96 h relative to day-0 seeding control (ratio to day 0); higher = more growth / less cytotoxicity; PDxO 3D drug screen, 96 h, CTG-3D normalised to day-0 seeding control.
HCI-001 = tested on: HCI-001 (organoid from a triple-negative breast cancer xenograft)
HCI-003.E2 = tested on: HCI-003.E2 (organoid from an ER-positive breast cancer xenograft)
HCI-027 = tested on: HCI-027 (organoid from a triple-negative breast cancer xenograft)

CC(C)(C(=O)NCC(F)(F)C(F)(F)F)C(=O)N[C@@H]1C(=O)Nc2ccccc2-c2ccccc21
CTG-3D luminescence at 96 h
Conditions	12.5 pM	0.00025 µM	0.005 µM	0.1 µM	1 µM	10 µM	100 µM	625 fM
HCI-001, days in culture: 240	1.46	1.17	0.87	0.976	1.16	0.943	1.23	1.67
HCI-001, days in culture: 260	2.5	1.03	1.58	1.23	1.44	1.29	1.15	2.09
HCI-001, days in culture: 269	1.46	1.61	1.38	1.81	1.67	2.38	1.78	1.58
HCI-001, days in culture: 327	1.38	1.27	1.54	1.77	1.29	1.04	1.38	1.83
HCI-001, days in culture: 346	1.54	1.31	1.17	1.11	1.26	1.31	1.57	1.29
HCI-001, days in culture: 364	1.49	1.25	1.38	1.09	1.14	1.29	0.937	1.4
HCI-027, days in culture: 176	2.35	1.45	1.79	–	–	–	–	–
HCI-027, days in culture: 194	1.64	1.41	1.38	–	–	–	–	–
HCI-027, days in culture: 201	2.24	1.62	–	–	–	–	–	–

HCI-003.E2
Conditions	CTG-3D luminescence at 96 h
12.5 pM	2.16
0.00025 µM	2.26
0.005 µM	2.01
0.1 µM	2.28
1 µM	1.96
10 µM	2.11
100 µM	0.942
625 fM	1.86
